Assay results as given in ChEMBL document CHEMBL1201861, “Genomics of Drug Sensitity in Cancer screening data, Wellcome Trust Sanger Institute”.
“And” between values parts separate entries of the source, which are not always exact repeats. Identical values can stand only once.

Legend:
Assay in all cases: cells
CaR-1 = assay type: functional, cell-based, Homo sapiens;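 further: growth inhibition of human CaR-1 cancer cells, read out with a cell viability assay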
Description: SANGER: Inhibition of human CaR-1 cell growth in a cell viability assay.

DB = assay type: functional, cell-based; settings: Homo sapiens
Description: SANGER: Inhibition of human DB cell growth in a cell viability assay.

GCIY = assay type: functional, cell-based, Homo sapiens;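 further: growth inhibition of the human GCIY cell line, read out by a cell viability assay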
Description: SANGER: Inhibition of human GCIY cell growth in a cell viability assay.

IST-MEL1 = assay type: functional, cell-based, Homo sapiens;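 further: growth inhibition of the cell line, read out with a cell viability assay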
Description: SANGER: Inhibition of human IST-MEL1 cell growth in a cell viability assay.

J82 = assay type: functional, cell-based; settings: Homo sapiens;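 further: growth inhibition of J82 cells, read out with a cell viability assay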
Description: SANGER: Inhibition of human J82 cell growth in a cell viability assay.

KINGS-1 = assay type: functional, cell-based, Homo sapiens;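 further: cell viability assay measuring suppression of KINGS-1 cell growth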
Description: SANGER: Inhibition of human KINGS-1 cell growth in a cell viability assay.

KYSE-410 = assay type: functional, cell-based, Homo sapiens;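 further: growth inhibition of KYSE-410 cells, measured through a cell viability readout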
Description: SANGER: Inhibition of human KYSE-410 cell growth in a cell viability assay.

KYSE-70 cell line = assay type: functional, cell-based, Homo sapiens;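 further: cell viability assay read-out, with IC50 expressing suppression of KYSE-70 cell growth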
Description: SANGER: Inhibition of human KYSE-70 cell growth in a cell viability assay.

L-428 = assay type: functional, cell-based; settings: Homo sapiens
Description: SANGER: Inhibition of human L-428 cell growth in a cell viability assay.

LB2518-MEL = assay type: functional, cell-based, Homo sapiens;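 further: growth inhibition of human LB2518-MEL cells, measured with a cell viability assay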
Description: SANGER: Inhibition of human LB2518-MEL cell growth in a cell viability assay.

LCLC-97TM1 = assay type: functional, cell-based, Homo sapiens;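 further: cell viability assay measuring growth inhibition of human LCLC-97TM1 cells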
Description: SANGER: Inhibition of human LCLC-97TM1 cell growth in a cell viability assay.

LS-1034 = assay type: functional, cell-based, Homo sapiens
Description: SANGER: Inhibition of human LS-1034 cell growth in a cell viability assay.

LU-134-A = assay type: functional, cell-based; settings: Homo sapiens
Description: SANGER: Inhibition of human LU-134-A cell growth in a cell viability assay.

Lu-65 = assay type: functional, cell-based; settings: Homo sapiens;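 further: growth inhibition of Lu-65 cancer cells, read out by a cell viability assay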
Description: SANGER: Inhibition of human LU-65 cell growth in a cell viability assay.

LoVo = assay type: functional, cell-based; settings: Homo sapiens;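 further: growth inhibition of human LoVo cells, read out with a cell viability assay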
Description: SANGER: Inhibition of human LoVo cell growth in a cell viability assay.

M14 = assay type: functional, cell-based, Homo sapiens;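 further: growth inhibition of M14 cells, read out with a cell viability assay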
Description: SANGER: Inhibition of human M14 cell growth in a cell viability assay.

MDA-MB-175-VII = assay type: functional, cell-based, Homo sapiens
MFH-ino = assay type: functional, cell-based; settings: Homo sapiens;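 further: growth inhibition of human MFH-ino cells, read out by a cell viability assay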
Description: SANGER: Inhibition of human MFH-ino cell growth in a cell viability assay.

MKN-1 = assay type: functional, cell-based, Homo sapiens;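 further: growth inhibition of human MKN1 cells, read out by a cell viability measurement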
Description: SANGER: Inhibition of human MKN1 cell growth in a cell viability assay.

MKN-7 = assay type: functional, cell-based, Homo sapiens;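 further: growth inhibition of MKN-7 cells, read out with a cell viability assay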
Description: SANGER: Inhibition of human MKN7 cell growth in a cell viability assay.

MN-60 = assay type: functional, cell-based; settings: Homo sapiens;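 further: growth inhibition of the MN-60 cell line, determined with a cell viability assay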
Description: SANGER: Inhibition of human MN-60 cell growth in a cell viability assay.

NB10 = assay type: functional, cell-based, Homo sapiens;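 further: growth inhibition of NB10 cells, read out by a cell viability assay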
Description: SANGER: Inhibition of human NB10 cell growth in a cell viability assay.

NCI-H1838 = assay type: functional, cell-based, Homo sapiens;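 further: growth inhibition of NCI-H1838 cells, determined with a cell viability readout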
Description: SANGER: Inhibition of human NCI-H1838 cell growth in a cell viability assay.

NCI-H446 = assay type: functional, cell-based; settings: Homo sapiens;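 further: growth inhibition of NCI-H446 cells determined by a cell viability assay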
Description: SANGER: Inhibition of human NCI-H446 cell growth in a cell viability assay.

NCI-H526 = assay type: functional, cell-based; settings: Homo sapiens;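 further: growth inhibition of the human NCI-H526 cell line, measured by a cell viability assay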
Description: SANGER: Inhibition of human NCI-H526 cell growth in a cell viability assay.

PA-1 = assay type: functional, cell-based, Homo sapiens;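 further: IC50 for suppression of PA-1 cell proliferation, determined with a cell viability read-out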
Description: SANGER: Inhibition of human PA-1 cell growth in a cell viability assay.

PFSK-1 = assay type: functional, cell-based, Homo sapiens;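 further: cell viability assay measuring how strongly compounds suppress growth of human PFSK-1 cells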
Description: SANGER: Inhibition of human PFSK-1 cell growth in a cell viability assay.

RERF-LC-MS = assay type: functional, cell-based, Homo sapiens;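 further: growth inhibition of human RERF-LC-MS cells, read out by a cell viability assay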
Description: SANGER: Inhibition of human RERF-LC-MS cell growth in a cell viability assay.

RT-112 = assay type: functional, cell-based, Homo sapiens
Description: SANGER: Inhibition of human RT-112 cell growth in a cell viability assay.

SCC-15 = assay type: functional, cell-based, Homo sapiens;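 further: growth inhibition of SCC-15 cells, read out with a cell viability assay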
Description: SANGER: Inhibition of human SCC-15 cell growth in a cell viability assay.

SK-N-DZ = assay type: functional, cell-based, Homo sapiens;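 further: growth inhibition of the cancer cell line, read out through a viability assay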
Description: SANGER: Inhibition of human SK-N-DZ cell growth in a cell viability assay.

SW1088 = assay type: functional, cell-based, Homo sapiens;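 further: growth inhibition of human SW1088 cells, read out by a cell viability assay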
Description: SANGER: Inhibition of human SW1088 cell growth in a cell viability assay.

SW948 = assay type: functional, cell-based, Homo sapiens;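 further: growth inhibition of SW948 cells, read out with a cell viability assay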
Description: SANGER: Inhibition of human SW948 cell growth in a cell viability assay.

SiHa = assay type: functional, cell-based, Homo sapiens;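 further: Viability-based readout of growth inhibition in SiHa cells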
Description: SANGER: Inhibition of human SiHa cell growth in a cell viability assay.

TCC-SUP = assay type: functional, cell-based, Homo sapiens;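 further: growth inhibition of TCC-SUP cells, read out with a cell viability assay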
Description: SANGER: Inhibition of human TCCSUP cell growth in a cell viability assay.

786-0 = assay type: functional, cell-based, Homo sapiens
Description: SANGER: Inhibition of human 786-0 cell growth in a cell viability assay.

A-427 = assay type: functional, cell-based, Homo sapiens;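 further: growth inhibition of human A-427 cells, read out by a cell viability assay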
Description: SANGER: Inhibition of human A427 cell growth in a cell viability assay.

A498 = assay type: functional, cell-based, Homo sapiens;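 further: growth inhibition of human A498 cells, read out with a cell viability assay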
Description: SANGER: Inhibition of human A498 cell growth in a cell viability assay.

AN3-CA = assay type: functional, cell-based; settings: Homo sapiens;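 further: growth inhibition of human AN3-CA cells measured by a cell viability assay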
Description: SANGER: Inhibition of human AN3-CA cell growth in a cell viability assay.

BB49-HNC = assay type: functional, cell-based, Homo sapiens;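 further: cell viability assay read-out, reported as inhibition of BB49-HNC cell growth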
Description: SANGER: Inhibition of human BB49-HNC cell growth in a cell viability assay.

BB65-RCC = assay type: functional, cell-based, Homo sapiens;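 further: growth inhibition of the cell line, measured with a cell viability assay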
Description: SANGER: Inhibition of human BB65-RCC cell growth in a cell viability assay.

BCPAP = assay type: functional, cell-based, Homo sapiens;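 further: growth inhibition of BCPAP cells, read out in a cell viability assay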
Description: SANGER: Inhibition of human BCPAP cell growth in a cell viability assay.

BPH-1 = assay type: functional, cell-based, Homo sapiens;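 further: cell viability assay measuring growth inhibition of human BPH-1 cells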
Description: SANGER: Inhibition of human BPH-1 cell growth in a cell viability assay.

BT-474 = assay type: functional, cell-based, Homo sapiens
Description: SANGER: Inhibition of human BT-474 cell growth in a cell viability assay.

C32 = assay type: functional, cell-based, Homo sapiens;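 further: cell viability assay, with IC50 reflecting inhibition of C32 cell growth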
Description: SANGER: Inhibition of human C32 cell growth in a cell viability assay.

C3A = assay type: functional, cell-based, Homo sapiens;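 further: growth inhibition of C3A human cells, quantified with a cell viability readout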
Description: SANGER: Inhibition of human C3A cell growth in a cell viability assay.

CAL-120 = assay type: functional, cell-based, Homo sapiens;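 further: cell growth inhibition, read out as cell viability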
Description: SANGER: Inhibition of human CAL-120 cell growth in a cell viability assay.

U-118-MG = assay type: functional, cell-based, Homo sapiens
Description: SANGER: Inhibition of human U-118-MG cell growth in a cell viability assay.

U-266 = assay type: functional, cell-based; settings: Homo sapiens
Description: SANGER: Inhibition of human U-266 cell growth in a cell viability assay.

UO-31 = assay type: functional, cell-based; settings: Homo sapiens;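 further: cell viability assay measuring inhibition of cell growth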
Description: SANGER: Inhibition of human U031 cell growth in a cell viability assay.

CHP-212 = assay type: functional, cell-based, Homo sapiens
Description: SANGER: Inhibition of human CHP-212 cell growth in a cell viability assay.

For `Cn1cc(C2=C(c3ccc(Cl)cc3Cl)C(=O)NC2=O)c2ccccc21` [SB-216763], the IC50 (CaR-1; Homo sapiens, CaR-1) was > 10 µM, the IC50 (DB) was > 10 µM and the IC50 (GCIY; Homo sapiens, GCIY) was > 10 µM. For the same compound, the IC50 (IST-MEL1; Homo sapiens, IST-MEL1) was > 10 µM, the IC50 (J82) was > 10 µM and the IC50 (KINGS-1; Homo sapiens, KINGS-1) was > 10 µM. For the same compound, the IC50 (KYSE-410; Homo sapiens, KYSE-410) was > 10 µM, the IC50 (KYSE-70 cell line; Homo sapiens, KYSE-70) was > 10 µM and the IC50 (L-428) was > 10 µM. For the same compound, the IC50 (LB2518-MEL; Homo sapiens, LB2518-MEL) was > 10 µM, the IC50 (LCLC-97TM1; Homo sapiens, LCLC-97TM1) was > 10 µM and the IC50 (LS-1034; Homo sapiens, LS-1034) was > 10 µM. For the same compound, the IC50 (LU-134-A) was > 10 µM, the IC50 (Lu-65) was > 10 µM and the IC50 (LoVo) was > 10 µM. The IC50 (M14; Homo sapiens, M14) was > 10 µM, the IC50 (MDA-MB-175-VII; Homo sapiens, MDA-MB-175-VII) was > 10 µM and the IC50 (MFH-ino) was > 10 µM. The IC50 (MKN-1; Homo sapiens, MKN-1) was > 10 µM, the IC50 (MKN-7; Homo sapiens, MKN-7) was > 10 µM and the IC50 (MN-60) was > 10 µM. For the same compound, the IC50 (NB10; Homo sapiens, NB10) was > 10 µM, the IC50 (NCI-H1838; Homo sapiens, NCI-H1838) was > 10 µM and the IC50 (NCI-H446) was > 10 µM. The IC50 (NCI-H526) was 0.0489 µM, the IC50 (PA-1; Homo sapiens, PA-1) was > 10 µM and the IC50 (PFSK-1; Homo sapiens, PFSK-1) was > 10 µM. The IC50 (RERF-LC-MS; Homo sapiens, RERF-LC-MS) was > 10 µM, the IC50 (RT-112; Homo sapiens, RT-112) was > 10 µM and the IC50 (SCC-15; Homo sapiens, SCC-15) was > 10 µM. For the same compound, the IC50 (SK-N-DZ; Homo sapiens, SK-N-DZ) was > 10 µM, the IC50 (SW1088; Homo sapiens, SW1088) was > 10 µM and the IC50 (SW948; Homo sapiens, SW948) was > 10 µM. For the same compound, the IC50 (SiHa; Homo sapiens, SiHa) was > 10 µM, the IC50 (TCC-SUP; Homo sapiens, TCC-SUP) was > 10 µM and the IC50 (786-0; Homo sapiens) was > 10 µM. For the same compound, the IC50 (A-427; Homo sapiens, A-427) was > 10 µM, the IC50 (A498; Homo sapiens, A498) was > 10 µM and the IC50 (AN3-CA) was > 10 µM. The IC50 (BB49-HNC; Homo sapiens, BB49-HNC) was > 10 µM, the IC50 (BB65-RCC; Homo sapiens, BB65-RCC) was > 10 µM and the IC50 (BCPAP; Homo sapiens, BCPAP) was > 10 µM. For the same compound, the IC50 (BPH-1; Homo sapiens, BPH-1) was > 10 µM, the IC50 (BT-474; Homo sapiens, BT-474) was > 10 µM and the IC50 (C32; Homo sapiens, C32) was > 10 µM. For the same compound, the IC50 (C3A; Homo sapiens, C3A) was > 10 µM, the IC50 (CAL-120; Homo sapiens, CAL-120) was > 10 µM and the IC50 (U-118-MG; Homo sapiens, U-118-MG) was > 10 µM. The IC50 (U-266) was > 10 µM, the IC50 (UO-31) was > 10 µM and the IC50 (CHP-212; Homo sapiens, CHP-212) was > 10 µM.

In the case of `Cc1cc([C@@H](C)Nc2ccccc2C(=O)O)c2nc(N3CCOCC3)cc(=O)n2c1` [AZD-6482], the IC50 (CaR-1; car-1) is reported as > 5.12 µM, the IC50 (DB) is reported as > 5.12 µM and the IC50 (GCIY; gciy) is reported as > 5.12 µM and 2.2 µM. The IC50 (IST-MEL1; ist-mel1) was 2.52 µM and > 5.12 µM, the IC50 (KINGS-1; Homo sapiens, KINGS-1) was > 5.12 µM and the IC50 (KINGS-1; kings-1) was > 5.12 µM. The IC50 (KYSE-410; kyse-410) was > 5.12 µM, the IC50 (KYSE-70 cell line; kyse-70) was > 5.12 µM and the IC50 (L-428) was > 5.12 µM. For the same compound, the IC50 (LB2518-MEL; Homo sapiens, LB2518-MEL) was > 5.12 µM, the IC50 (LB2518-MEL; lb2518-mel) was > 5.12 µM and the IC50 (LCLC-97TM1; Homo sapiens, LCLC-97TM1) was > 5.12 µM. The IC50 (LCLC-97TM1; lclc-97tm1) was > 5.12 µM, the IC50 (LS-1034; Homo sapiens, LS-1034) was > 5.12 µM and the IC50 (LS-1034; ls-1034) was > 5.12 µM. For the same compound, the IC50 (LU-134-A) was > 5.12 µM, the IC50 (Lu-65) was > 5.12 µM and the IC50 (M14; m14) was > 5.12 µM. The IC50 (MDA-MB-175-VII; mda-mb-175-vii) was > 5.12 µM, the IC50 (MFH-ino) was > 5.12 µM and the IC50 (MKN-1; mkn-1) was > 5.12 µM. The IC50 (MKN-7; mkn-7) was > 5.12 µM, the IC50 (MN-60) was > 5.12 µM and the IC50 (NB10; Homo sapiens, NB10) was > 5.12 µM. For the same compound, the IC50 (NB10; nb10) was > 5.12 µM, the IC50 (NCI-H1838; nci-h1838) was > 5.12 µM and the IC50 (NCI-H446) was > 5.12 µM. The IC50 (NCI-H526) was > 5.12 µM, the IC50 (PA-1; pa-1) was > 5.12 µM and 2.43 µM and the IC50 (PFSK-1; pfsk-1) was > 5.12 µM. For the same compound, the IC50 (RERF-LC-MS; rerf-lc-ms) was > 5.12 µM and 4.34 µM, the IC50 (RT-112; Homo sapiens, RT-112) was > 5.12 µM and the IC50 (RT-112; rt-112) was > 5.12 µM. For the same compound, the IC50 (SCC-15; scc-15) was > 5.12 µM, the IC50 (SK-N-DZ; sk-n-dz) was > 5.12 µM and 2.32 µM and the IC50 (SW1088; Homo sapiens, SW1088) was 2.48 µM. For the same compound, the IC50 (SW1088; sw1088) was 2.01 µM, the IC50 (SW948; sw948) was > 5.12 µM and the IC50 (SiHa; Homo sapiens, SiHa) was > 5.12 µM. The IC50 (SiHa; siha) was > 5.12 µM, the IC50 (TCC-SUP; tcc-sup) was > 5.12 µM and the IC50 (786-0) was 1.99 µM. The IC50 (786-0; Homo sapiens) was 1.31 µM, the IC50 (A-427; a-427) was 0.995 µM and > 5.12 µM and the IC50 (A498; a498) was 0.118 µM and 0.459 µM. For the same compound, the IC50 (AN3-CA) was 3.59 µM, the IC50 (BB49-HNC; bb49-hnc) was > 5.12 µM and 0.73 µM and the IC50 (BB65-RCC; Homo sapiens, BB65-RCC) was > 5.12 µM. For the same compound, the IC50 (BB65-RCC; bb65-rcc) was > 5.12 µM, the IC50 (BCPAP; Homo sapiens, BCPAP) was > 5.12 µM and the IC50 (BCPAP; bcpap) was > 5.12 µM. The IC50 (BPH-1; Homo sapiens, BPH-1) was 4.9 µM, the IC50 (BPH-1; bph-1) was 4.3 µM and the IC50 (BT-474; bt-474) was > 5.12 µM. For the same compound, the IC50 (C32; c32) was > 5.12 µM, the IC50 (C3A; c3a) was > 5.12 µM and the IC50 (CAL-120; cal-120) was > 5.12 µM. For the same compound, the IC50 (U-118-MG; u-118-mg) was > 5.12 µM and 3.26 µM, the IC50 (U-266) was > 5.12 µM and the IC50 (CHP-212; chp-212) was > 5.12 µM.
